Laboratory results as given in patent publication US12698342B2, “Therapy for drug-resistant cancer by administration of anti-HER2 antibody/drug conjugate” (DAIICHI SANKYO COMPANY, LIMITED, priority 2016, dated 2026).

Tests used:
[1] = test system: HER2-positive human breast cancer ST1360B/TDR; details: mouse, in vivo
Description: (§1) Mouse: 6- to 12-week-old female immunodeficient Crl:Nu(Ncr)-Foxn1^Nu mice (Charles River Laboratories Japan, Inc.) were subjected to the experiment.
(§2) Assay and calculation expression: The major axis and minor axis of tumor were measured twice a week by using an electronic digital caliper, and the tumor volume (mm^3) was calculated. The calculation expression is as shown below. Tumor volume (mm^3)=0.52×Major axis (mm)×[Minor axis ([…])]^2
(§3) Tumor excised from a patient with HER2-positive breast cancer that acquired resistance after treatment with T-DM1 was maintained at several passages by transplantation to female immunodeficient mice. […] ST1616B/TDR is tumor derived from a patient who received T-DM1 by continuous administration for 13 months, and ST1360B/TDR is a tumor derived from a patient who received T-DM1 by continuous administration for 3 months.
(§4) A tumor section of the solid tumor was subcutaneously transplanted to the side of the body of each female immunodeficient mouse, and the mice were randomly grouped when the tumor volume reached about 200 mm^3.

[2] = test system: HER2-positive human breast cancer ST1616B/TDR; details: mouse, in vivo
Description: as §1, §2, §3, §4

[3] = test system: Breast cancer or gastric adenocarcinoma/esophagogastric junction adenocarcinoma; details: human, in vivo
Description: Open-label, Phase 1 dose escalation study.
Part 1 study: Dose escalation study (conducted in Japan)
Breast cancer or gastric adenocarcinoma/esophagogastric junction adenocarcinoma
Objective response rate (ORR; complete response (CR)+partial response (PR)).
Disease control rate (DCR; CR+PR+stable disease (SD)).

topoisomerase I = target: T1, topoisomerase I (Homo sapiens, UniProt P11387); details: cited from earlier work
T1 sequence (P11387 1-765): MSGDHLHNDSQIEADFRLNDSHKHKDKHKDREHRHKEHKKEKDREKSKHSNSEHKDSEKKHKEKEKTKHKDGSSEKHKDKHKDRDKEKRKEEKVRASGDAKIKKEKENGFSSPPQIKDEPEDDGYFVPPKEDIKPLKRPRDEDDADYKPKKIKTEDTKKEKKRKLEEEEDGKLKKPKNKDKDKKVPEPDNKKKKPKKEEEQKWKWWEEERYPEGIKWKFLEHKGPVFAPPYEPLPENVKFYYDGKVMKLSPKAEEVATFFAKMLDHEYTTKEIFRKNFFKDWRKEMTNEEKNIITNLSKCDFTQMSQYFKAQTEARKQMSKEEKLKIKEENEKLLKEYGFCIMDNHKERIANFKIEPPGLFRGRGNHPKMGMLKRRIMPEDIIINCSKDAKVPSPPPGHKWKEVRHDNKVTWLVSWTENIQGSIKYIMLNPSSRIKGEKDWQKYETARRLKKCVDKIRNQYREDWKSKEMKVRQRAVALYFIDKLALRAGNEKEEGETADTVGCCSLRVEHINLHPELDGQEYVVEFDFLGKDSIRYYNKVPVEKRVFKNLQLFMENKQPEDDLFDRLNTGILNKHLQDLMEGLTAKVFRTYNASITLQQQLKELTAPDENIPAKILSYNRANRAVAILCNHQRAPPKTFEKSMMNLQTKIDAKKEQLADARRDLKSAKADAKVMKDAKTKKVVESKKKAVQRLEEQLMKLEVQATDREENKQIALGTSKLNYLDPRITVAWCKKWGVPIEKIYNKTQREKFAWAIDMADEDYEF

Compound: T-DM1
- growth of the tumor (tumor volume) [1]: did not inhibit the growth
- growth of the tumor (tumor volume) [2]: did not inhibit the growth
- DCR [3]: 64%
- ORR [3]: 18%

Compound: CC[C@@]1(O)C(=O)OCc2c1cc1n(c2=O)Cc2c-1nc1cc(F)c(C)c3c1c2[C@@H](NC(=O)CO)CC3 [Compound 1]
- topoisomerase I inhibitory effect (topoisomerase I; Ogitani Y. et al., Clinical Cancer Research, 2016): confirmed to have a topoisomerase I inhibitory effect

Compound: CC[C@@]1(O)C(=O)OCc2c1cc1n(c2=O)Cc2c-1nc1cc(F)c(C)c3c1c2[C@@H](N)CC3 [exatecan, (1S,9S)-1-amino-9-ethyl-5-fluoro-1,2,3,9,12,15-hexahydro-9-hydroxy-4-methyl-10H,13H-benzo[de]pyrano[3′,4′:6,7]indolizino[1,2-b]quinolin-10,13-dione]
- inhibitory activity on topoisomerase I (topoisomerase I; compared with SN-38 and topotecan): higher than SN-38
